Experimental data as given in patent US20110097274A1, “Carbon-11 and fluorine-18 labeled radioligands for positron emission tomography (PET) imaging for the brain serotonin transporters” (priority 2002, published 2011).
Values joined by “and” are separate entries in the source; they are usually repeats but may differ in a detail not shown here. Equal values may be shown once.

Columns and labels:
[1] = test system: SERT; test: Baboon PET imaging: brain uptake, kinetic analysis and SERT parameters; format: in vivo
Method in brief: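 Two isoflurane-anaesthetised adult male baboons, each radioligand tested twice (test-retest); i.v. bolus, 91 min 3D emission scan with arterial sampling, MRI-defined regions. Brain uptake as % ID g^−1, with peak time and washout; VT from one-tissue compartment model (K1/k2) using arterial plasma input.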

[2] = Plasma free fraction (f1) and filter retention by ultrafiltration; format: in vitro ADME, baboon; details: mean ± SD of four experiments
Description: Plasma and ultrafiltrate activities were counted, and f1 was calculated as the ratio of ultrafiltrate activity to total plasma activity. Triplicate aliquots of the radioligand in pH 7.4 Tris buffer were also processed to determine the filter retention of free tracer.

[3] = BP = VT ROI − VT CER, baboons, mean ± SD of four experiments
[4] = Mean ± SD of four experiments in two baboons
[5] = baboon A, experiments of FIGS. 5-9 (FIG. 10)
[6] = baboons, mean ± SD of four experiments
[7] = last scan 90 minutes, baboons, mean ± SD of four experiments
[8] = one-tissue compartment model, baboons, mean ± SD of four experiments

In the case of CN([11CH3])Cc1ccccc1Sc1ccc(CF)cc1N [[^11C]AFM, [^11C]2-[2-(Dimethylaminomethyl)phenylthio]-5-fluoromethylphenylamine], the “Binding potential Cingulate Cortex” value [1, 3] is reported as 8.5 ± 1.0 mL/g, the “Binding potential Hippocampus” value [1, 3] is reported as 20.9 ± 2.5 mL/g and the “Binding potential Midbrain” value [1, 3] is reported as 65.8 ± 11.7 mL/g. The “Binding potential Occipital Cortex” value [1, 3] was 7.3 ± 1.3 mL/g, the “Binding potential Striatum” value [1, 3] was 31.3 ± 6.5 mL/g and the “Binding potential Temporal Cortex” value [1, 3] was 11.8 ± 0.9 mL/g. For the same compound, the “Binding potential Thalamus” value [1, 3] was 71.3 ± 16.5 mL/g, the “Equilibrium specific to non-specific partition coefficient (V3″) Cingulate Cortex” value ([1]; Baboon A, single experiment) was 0.30 and 0.26 and the “Equilibrium specific to non-specific partition coefficient (V3″) Hippocampus” value ([1]; Baboon A, single experiment) was 0.70 and 0.75. The “Equilibrium specific to non-specific partition coefficient (V3″) Midbrain” value ([1]; Baboon A, single experiment) was 2.13 and 2.18, the “Equilibrium specific to non-specific partition coefficient (V3″) Occipital Cortex” value ([1]; Baboon A, single experiment) was 0.29 and 0.30 and the “Equilibrium specific to non-specific partition coefficient (V3″) Striatum” value ([1]; Baboon A, single experiment) was 0.97 and 0.92. The “Equilibrium specific to non-specific partition coefficient (V3″) Temporal Cortex” value ([1]; Baboon A, single experiment) was 0.38 and 0.46, the “Equilibrium specific to non-specific partition coefficient (V3″) Thalamus” value ([1]; Baboon A, single experiment) was 2.10 and the “Equilibrium specific to non-specific partition coefficient (V3″) Cingulate Cortex” value ([1]; Baboon B, single experiment) was 0.30 and 0.25. The “Equilibrium specific to non-specific partition coefficient (V3″) Hippocampus” value ([1]; Baboon B, single experiment) was 0.61 and 0.69, the “Equilibrium specific to non-specific partition coefficient (V3″) Midbrain” value ([1]; Baboon B, single experiment) was 1.94 and 2.33 and the “Equilibrium specific to non-specific partition coefficient (V3″) Occipital Cortex” value ([1]; Baboon B, single experiment) was 0.18 and 0.20. For the same compound, the “Equilibrium specific to non-specific partition coefficient (V3″) Striatum” value ([1]; Baboon B, single experiment) was 1.06 and 1.11, the “Equilibrium specific to non-specific partition coefficient (V3″) Temporal Cortex” value ([1]; Baboon B, single experiment) was 0.35 and 0.37 and the “Equilibrium specific to non-specific partition coefficient (V3″) Thalamus” value ([1]; Baboon B, single experiment) was 2.46 and 2.58. For the same compound, the “Equilibrium specific to non-specific partition coefficient (V3″) Cingulate Cortex” value [1, 4] was 0.28 ± 0.02, the “Equilibrium specific to non-specific partition coefficient (V3″) Hippocampus” value [1, 4] was 0.69 ± 0.06 and the “Equilibrium specific to non-specific partition coefficient (V3″) Midbrain” value [1, 4] was 2.14 ± 0.16. For the same compound, the “Equilibrium specific to non-specific partition coefficient (V3″) Occipital Cortex” value [1, 4] was 0.24 ± 0.06, the “Equilibrium specific to non-specific partition coefficient (V3″) Striatum” value [1, 4] was 1.01 ± 0.08 and the “Equilibrium specific to non-specific partition coefficient (V3″) Temporal Cortex” value [1, 4] was 0.39 ± 0.05. For the same compound, the “Equilibrium specific to non-specific partition coefficient (V3″) Thalamus” value [1, 4] was 2.31 ± 0.25, the “Thalamus to cerebellum ratio equal to true equilibrium ratio (V3″+1)” value [1, 5] was 3.10 and the “Time at which measured thalamus to cerebellum ratio equals the true equilibrium ratio (estimate of peak specific binding)” value [1, 5] was 64 min. For the same compound, the “K1, average of all regions and all animals” value ([1]; baboons) was 1.44 ± 0.40 mL/g/min, the “VT, average of all regions and all animals” value ([1]; baboons) was 57.5 ± 27.5 mL/g and the “k2, average of all regions and all animals” value ([1]; baboons) was 0.030 ± 0.015 min⁻¹. For the same compound, the “f2 (free fraction in the nonspecific distribution volume)” value ([1]; baboons, calculated from f1 and cerebellar VT) was 0.32±0.04%, the “V3″ expressed in percentage of [^11C]McN 5652 V3″” value ([1]; baboons, combining all regions) was 193±35% and the “Mean regional peak uptake time” value ([1]; baboons, mean of all regions) was 38 ± 19 min. The “Mean regional wash-out (% decrease between peak time and last scan)” value ([1]; baboons, mean of all regions) was 32±26%, the “Cingulate Cortex to cerebellum activity ratio at 90 minutes” value [1, 6] was 1.30 ± 0.09 and the “Hippocampus to cerebellum activity ratio at 90 minutes” value [1, 6] was 1.84 ± 0.40. The “Midbrain to cerebellum activity ratio at 90 minutes” value [1, 6] was 3.48 ± 1.09, the “Occipital Cortex to cerebellum activity ratio at 90 minutes” value [1, 6] was 1.26 ± 0.18 and the “Regional uptake peak time Cerebellum” value [1, 6] was 23 ± 11 min. For the same compound, the “Regional uptake peak time Cingulate Cortex” value [1, 6] was 28 ± 11 min, the “Regional uptake peak time Hippocampus” value [1, 6] was 39 ± 16 min and the “Regional uptake peak time Midbrain” value [1, 6] was 56 ± 24 min. The “Regional uptake peak time Occipital Cortex” value [1, 6] was 30 ± 14 min, the “Regional uptake peak time Striatum” value [1, 6] was 44 ± 21 min and the “Regional uptake peak time Temporal Cortex” value [1, 6] was 34 ± 14 min. For the same compound, the “Regional uptake peak time Thalamus” value [1, 6] was 54 ± 22 min, the “Striatum to cerebellum activity ratio at 90 minutes” value [1, 6] was 2.10 ± 0.24 and the “Temporal Cortex to cerebellum activity ratio at 90 minutes” value [1, 6] was 1.44 ± 0.20. The “Thalamus to cerebellum activity ratio at 90 minutes” value [1, 6] was 3.51 ± 0.72, the “Total brain uptake at 45 min” value ([1]; baboons, region encompassing the entire brain) was 0.016±0.002 % ID g^−1 and the “In vivo affinity relative to [^11C]DASB (times higher)” value ([1]; from Bmax/KD ratios, assuming same number of binding sites) was 3.3 times. For the same compound, the “Regional activity wash-out: % decrease from peak to last scan, Cerebellum” value [1, 7] was 48 ± 28%, the “Regional activity wash-out: % decrease from peak to last scan, Cingulate Cortex” value [1, 7] was 43 ± 27% and the “Regional activity wash-out: % decrease from peak to last scan, Hippocampus” value [1, 7] was 26 ± 27%. For the same compound, the “Regional activity wash-out: % decrease from peak to last scan, Midbrain” value [1, 7] was 16 ± 22%, the “Regional activity wash-out: % decrease from peak to last scan, Occipital Cortex” value [1, 7] was 42 ± 27% and the “Regional activity wash-out: % decrease from peak to last scan, Striatum” value [1, 7] was 29 ± 31%. The “Regional activity wash-out: % decrease from peak to last scan, Temporal Cortex” value [1, 7] was 36 ± 29%, the “Regional activity wash-out: % decrease from peak to last scan, Thalamus” value [1, 7] was 18 ± 25% and the “K1 Cerebellum” value [1, 8] was 1.52 ± 0.49 mL/g/min. For the same compound, the “K1 Cingulate Cortex” value [1, 8] was 1.48 ± 0.40 mL/g/min, the “K1 Hippocampus” value [1, 8] was 1.15 ± 0.35 mL/g/min and the “K1 Midbrain” value [1, 8] was 1.57 ± 0.41 mL/g/min. For the same compound, the “K1 Occipital Cortex” value [1, 8] was 1.35 ± 0.37 mL/g/min, the “K1 Striatum” value [1, 8] was 1.48 ± 0.48 mL/g/min and the “K1 Temporal Cortex” value [1, 8] was 1.25 ± 0.34 mL/g/min. For the same compound, the “K1 Thalamus” value [1, 8] was 1.68 ± 0.42 mL/g/min, the “K2 Cerebellum” value [1, 8] was 0.051 ± 0.021 min⁻¹ and the “K2 Cingulate Cortex” value [1, 8] was 0.039 ± 0.012 min⁻¹. The “K2 Hippocampus” value [1, 8] was 0.023 ± 0.008 min⁻¹, the “K2 Midbrain” value [1, 8] was 0.017 ± 0.006 min⁻¹ and the “K2 Occipital Cortex” value [1, 8] was 0.036 ± 0.011 min⁻¹. The “K2 Striatum” value [1, 8] was 0.025 ± 0.010 min⁻¹, the “K2 Temporal Cortex” value [1, 8] was 0.030 ± 0.010 min⁻¹ and the “K2 Thalamus” value [1, 8] was 0.017 ± 0.006 min⁻¹. For the same compound, the “VT Cerebellum (VT CER, nonspecific distribution volume)” value [1, 8] was 30.6 ± 3.9 mL/g, the “VT Cingulate Cortex” value [1, 8] was 39.0 ± 4.7 mL/g and the “VT Hippocampus” value [1, 8] was 51.5 ± 6.1 mL/g. For the same compound, the “VT Midbrain” value [1, 8] was 96.3 ± 15.3 mL/g, the “VT Occipital Cortex” value [1, 8] was 37.9 ± 3.6 mL/g and the “VT Striatum” value [1, 8] was 61.9 ± 10.4 mL/g. For the same compound, the “VT Temporal Cortex” value [1, 8] was 42.4 ± 4.5 mL/g, the “VT Thalamus” value [1, 8] was 101.9 ± 20.4 mL/g and the Filter retention ([2]; activity remaining on filter, radioligand dissolved in saline) was 19.3 ± 4.1%. For the same compound, the “f1 (plasma free fraction)” value ([2]; baboon plasma, ultrafiltration) was 9.6 ± 0.5%.
